Consider three molecules from ChEMBL document CHEMBL1201862, “PubChem BioAssay data set” (2004).

A short description of assay [1]: control 3'UTR Renilla luciferase suppression, dose response, counter-screen for Shn3 inhibitor project, cell-based, Clone20-Shn3RL, cherry-picked (AID 624133). The format is functional. For orientation: Counterscreens check selectivity or assay interference.
The nature of assay [2]: Shn3 3'UTR reporter inhibitors, dose response, cell-based, Clone20 osteoblasts, firefly luciferase, cherry-picked (AID 624132).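 Note: firefly luciferase luminescence from reporter carrying the Shn3 3'UTR in osteoblasts.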 The format is functional.
Assay [3] has as its target ATP-binding cassette sub-family B member 6 (Homo sapiens, UniProt Q9NP58). The assay can be described thus: ABCB6 transporter inhibitors, porphyrin accumulation, dose response, flow cytometry, K562-ABCB6 cells, cherry pick 02 (AID 624487). The format is functional. As to conditions: read-out: EC50_MICROM. In general terms: Flow cytometry measures light scatter and fluorescence of single cells or particles in a stream.

Assay [4] can be described thus: HepG2 cell cytotoxicity, dose response, cytotoxicity control for Shn3 inhibitor project, CellTiter-Glo, cherry-picked (AID 624134). Format: functional, cell-based. For orientation: In ATP-based viability assays light output follows the ATP content of the culture.
Assay [5] concerns the target T1, Replicative DNA helicase DnaB (Mycobacterium tuberculosis, UniProt P9WMR3).
T1 sequence (P9WMR3 whole entry): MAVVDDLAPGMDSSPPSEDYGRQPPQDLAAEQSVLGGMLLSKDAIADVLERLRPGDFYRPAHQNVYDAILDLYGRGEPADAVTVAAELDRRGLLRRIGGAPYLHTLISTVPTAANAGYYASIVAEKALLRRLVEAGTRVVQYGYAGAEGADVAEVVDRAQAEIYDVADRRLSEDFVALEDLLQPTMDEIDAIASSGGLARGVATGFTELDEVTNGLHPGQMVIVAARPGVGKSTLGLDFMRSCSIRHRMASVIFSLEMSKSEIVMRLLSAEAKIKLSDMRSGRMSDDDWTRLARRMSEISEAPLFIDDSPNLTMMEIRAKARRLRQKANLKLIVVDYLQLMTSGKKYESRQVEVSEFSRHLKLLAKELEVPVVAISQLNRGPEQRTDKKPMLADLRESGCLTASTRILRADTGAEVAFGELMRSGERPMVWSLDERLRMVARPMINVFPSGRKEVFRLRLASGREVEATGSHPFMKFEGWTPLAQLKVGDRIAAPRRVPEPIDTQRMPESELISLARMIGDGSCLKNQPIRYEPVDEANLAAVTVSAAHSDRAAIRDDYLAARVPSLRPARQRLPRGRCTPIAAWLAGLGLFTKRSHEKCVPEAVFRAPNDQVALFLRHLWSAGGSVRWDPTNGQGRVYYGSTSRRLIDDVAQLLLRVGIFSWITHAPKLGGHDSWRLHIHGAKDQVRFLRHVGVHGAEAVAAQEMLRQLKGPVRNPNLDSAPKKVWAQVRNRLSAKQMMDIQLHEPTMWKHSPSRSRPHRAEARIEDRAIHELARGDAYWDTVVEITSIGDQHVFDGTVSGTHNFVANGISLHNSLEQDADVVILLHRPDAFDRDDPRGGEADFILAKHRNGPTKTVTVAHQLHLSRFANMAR
The assay is described as follows: DnaB intein splicing inhibitors, dose response, biochemical, cell-free fluorescence (AID 449749). Format: functional.

Assay [6] concerns the target Potassium voltage-gated channel subfamily KQT member 2 (Rattus norvegicus, UniProt O88943, W236L). The assay can be described thus: KCNQ2 channel potentiators, dose response, mechanism study for KCNQ2 potentiator project, cell-based, automated electrophysiology (AID 2603). The format is functional.
Assay [7] addresses T2, High affinity choline transporter 1 (Homo sapiens, UniProt Q9GZV3).
T2 sequence (Q9GZV3 whole entry): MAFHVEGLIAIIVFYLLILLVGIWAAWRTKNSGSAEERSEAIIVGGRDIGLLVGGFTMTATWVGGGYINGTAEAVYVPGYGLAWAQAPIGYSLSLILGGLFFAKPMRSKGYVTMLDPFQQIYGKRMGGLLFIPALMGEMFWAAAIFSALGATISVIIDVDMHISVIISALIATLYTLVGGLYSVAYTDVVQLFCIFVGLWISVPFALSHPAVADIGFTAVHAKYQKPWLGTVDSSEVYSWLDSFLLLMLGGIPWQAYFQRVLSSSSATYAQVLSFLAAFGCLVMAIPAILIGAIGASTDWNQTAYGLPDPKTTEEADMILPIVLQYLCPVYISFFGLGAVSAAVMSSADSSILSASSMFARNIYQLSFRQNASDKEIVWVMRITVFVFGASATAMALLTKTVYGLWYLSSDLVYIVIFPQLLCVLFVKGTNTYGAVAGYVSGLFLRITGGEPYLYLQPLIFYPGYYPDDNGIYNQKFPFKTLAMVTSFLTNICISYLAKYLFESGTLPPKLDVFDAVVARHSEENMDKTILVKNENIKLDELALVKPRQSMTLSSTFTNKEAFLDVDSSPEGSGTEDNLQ
The assay can be described thus: CHT inhibitors, dose response, cell-based, 10-point CRC, membrane potential dye (AID 588401).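 Note: membrane potential dye fluorescence of choline-evoked depolarization via CHT.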 Format: functional.

Another assay has as its target Genome polyprotein (dengue virus type 2, UniProt P29990). The assay can be described thus: Dengue-2 NS5 methyltransferase inhibitors, primary screen, biochemical, confirmation dose response (AID 588689). Format: functional.
The next assay has as its target T3, Protein RecA (Mycobacterium tuberculosis, UniProt P9WHJ3).
T3 sequence (P9WHJ3 whole entry): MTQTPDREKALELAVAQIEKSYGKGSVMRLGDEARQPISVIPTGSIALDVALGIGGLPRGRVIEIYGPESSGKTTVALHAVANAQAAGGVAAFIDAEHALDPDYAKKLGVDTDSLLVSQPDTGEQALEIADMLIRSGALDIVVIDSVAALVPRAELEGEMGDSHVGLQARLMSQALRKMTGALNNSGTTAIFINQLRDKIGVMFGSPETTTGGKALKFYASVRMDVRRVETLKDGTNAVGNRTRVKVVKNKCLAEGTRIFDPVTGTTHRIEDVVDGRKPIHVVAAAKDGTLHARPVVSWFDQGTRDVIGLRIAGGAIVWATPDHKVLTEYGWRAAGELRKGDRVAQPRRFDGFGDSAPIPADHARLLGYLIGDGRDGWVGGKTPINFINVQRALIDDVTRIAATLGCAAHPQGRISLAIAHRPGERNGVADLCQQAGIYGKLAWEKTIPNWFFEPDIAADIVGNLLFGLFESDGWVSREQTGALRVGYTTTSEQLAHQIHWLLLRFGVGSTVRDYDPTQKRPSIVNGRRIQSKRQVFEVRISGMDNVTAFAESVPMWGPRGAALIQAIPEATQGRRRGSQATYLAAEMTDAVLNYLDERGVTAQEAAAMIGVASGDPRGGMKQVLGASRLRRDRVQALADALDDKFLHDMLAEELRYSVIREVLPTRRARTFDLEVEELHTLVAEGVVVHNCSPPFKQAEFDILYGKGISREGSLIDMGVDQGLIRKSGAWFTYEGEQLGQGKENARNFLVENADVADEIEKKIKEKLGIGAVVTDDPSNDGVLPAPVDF
The assay is described as follows: Fluorescence Cell-Free Homogeneous Dose Retest to Identify Inhibitors of RecA-Intein Splicing Activity. [Related pubchem assays (depositor defined):AID2097, AID2223, AID489010, AID492950]. Format: functional.

The test system of another assay is Vero. The assay is described as follows: Vero cell cytotoxicity, cytotoxicity control for flavivirus capping enzyme inhibitors (AID 588742). The format is functional. To be noted: Chlorocebus sabaeus.
For assay [8], the target named is T2, High affinity choline transporter 1. The assay can be described thus: CHT inhibitors, dose response, cell-based, 5-point CRC, membrane potential dye (AID 504840). The format is functional.
The next assay has as its target T4, Estrogen receptor (Homo sapiens, UniProt P03372).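 Note: potency for inhibiting coactivator peptide recruitment to the receptor.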
T4 sequence (P03372 whole entry): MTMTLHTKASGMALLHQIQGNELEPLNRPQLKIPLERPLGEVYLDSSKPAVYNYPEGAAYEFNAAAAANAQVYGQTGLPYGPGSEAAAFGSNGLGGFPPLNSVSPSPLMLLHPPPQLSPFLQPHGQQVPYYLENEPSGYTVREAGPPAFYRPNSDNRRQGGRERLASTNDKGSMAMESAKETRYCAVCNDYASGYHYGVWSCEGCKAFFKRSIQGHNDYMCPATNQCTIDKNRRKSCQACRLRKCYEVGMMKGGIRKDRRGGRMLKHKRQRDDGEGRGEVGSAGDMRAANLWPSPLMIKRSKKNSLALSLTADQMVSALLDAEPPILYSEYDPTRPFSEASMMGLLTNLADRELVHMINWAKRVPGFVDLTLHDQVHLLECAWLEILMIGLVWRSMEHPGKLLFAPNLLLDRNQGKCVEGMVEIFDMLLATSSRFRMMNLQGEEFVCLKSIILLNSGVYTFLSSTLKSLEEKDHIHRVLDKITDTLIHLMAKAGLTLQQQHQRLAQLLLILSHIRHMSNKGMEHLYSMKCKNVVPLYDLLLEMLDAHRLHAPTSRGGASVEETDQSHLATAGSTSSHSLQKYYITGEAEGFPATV

Assay [9] deals with T5, Carboxy-terminal domain RNA polymerase II polypeptide A small phosphatase 1 (Homo sapiens, UniProt Q9GZU7).
T5 sequence (Q9GZU7 whole entry): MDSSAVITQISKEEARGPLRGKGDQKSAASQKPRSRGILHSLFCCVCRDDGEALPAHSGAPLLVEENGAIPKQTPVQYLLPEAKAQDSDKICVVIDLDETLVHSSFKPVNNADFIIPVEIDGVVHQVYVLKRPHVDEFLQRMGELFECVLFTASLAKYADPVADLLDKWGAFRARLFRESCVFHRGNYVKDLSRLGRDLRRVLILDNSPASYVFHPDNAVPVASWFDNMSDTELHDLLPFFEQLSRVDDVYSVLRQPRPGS
The assay is described as follows: inhibitors of CTDSP1, concentration-response testing, biochemical assay, absorbance-based, actives from ultra-high-throughput screening (AID 540297). The format is functional.

The next assay addresses Vasopressin V1a receptor (Homo sapiens, UniProt P37288). The assay is described as follows: Fluorescence-based cell-based high throughput dose response screening assay for agonists of the vasopressin 1 receptor (V1R). The format is functional.
Another assay deals with Oxytocin receptor (Homo sapiens, UniProt P30559). The assay can be described thus: Counterscreen for vasopressin 1 receptor (V1R) agonists: Fluorescence-based cell-based high throughput dose response assay for agonists of the Oxytocin Receptor (OXTR). [Related pubchem assays: 2435 (Primary screen (OXTR agonists in singlicate)), 434964 (Confirmation screen (V1R agonists in triplicate)), 434969 (Counterscreen (OXTR agonists in …. Format: functional.

For assay [10], the target named is T6, RNA-binding protein pos-1 (Caenorhabditis elegans, UniProt G5EF15).
T6 sequence (G5EF15 whole entry): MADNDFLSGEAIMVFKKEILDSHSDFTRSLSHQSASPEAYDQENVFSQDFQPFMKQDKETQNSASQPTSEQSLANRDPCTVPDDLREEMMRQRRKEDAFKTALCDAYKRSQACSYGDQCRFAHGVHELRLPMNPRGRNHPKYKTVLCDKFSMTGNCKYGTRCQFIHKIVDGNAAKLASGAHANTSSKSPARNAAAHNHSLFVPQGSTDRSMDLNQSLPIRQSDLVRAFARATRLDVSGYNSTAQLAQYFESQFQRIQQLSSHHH
The assay is described as follows: inhibitors of POS-1/mex-3 RNA binding, dose response, biochemical, fluorescence polarization (AID 1964).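 Note: purified POS-1 fused to maltose binding protein made in E. coli; potency of compounds blocking POS-1 binding to fluorescent RNA.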

The target of assay [11] is T7, Zinc finger protein mex-5 (Caenorhabditis elegans, UniProt Q9XUB2).
T7 sequence (Q9XUB2 whole entry): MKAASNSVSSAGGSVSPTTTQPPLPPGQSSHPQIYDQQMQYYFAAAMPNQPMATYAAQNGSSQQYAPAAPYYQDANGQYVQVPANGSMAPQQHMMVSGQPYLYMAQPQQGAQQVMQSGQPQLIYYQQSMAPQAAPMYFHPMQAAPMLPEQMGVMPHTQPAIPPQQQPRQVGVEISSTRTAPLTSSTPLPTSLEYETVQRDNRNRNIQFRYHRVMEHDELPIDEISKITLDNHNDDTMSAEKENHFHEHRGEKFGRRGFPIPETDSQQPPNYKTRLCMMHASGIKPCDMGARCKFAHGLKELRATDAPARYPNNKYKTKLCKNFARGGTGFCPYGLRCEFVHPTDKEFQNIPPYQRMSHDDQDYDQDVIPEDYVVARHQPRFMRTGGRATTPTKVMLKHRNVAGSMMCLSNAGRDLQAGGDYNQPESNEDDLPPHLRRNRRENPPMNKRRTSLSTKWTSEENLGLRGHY
The assay is described as follows: MEX-5/TCR-2 RNA interaction inhibitors, dose response, biochemical, C. elegans, fluorescence polarization (AID 1960).

Activity calls are given as the source filed them. Where only a bound is given, the exact number is not on record here.

Chain of Potassium voltage-gated channel subfamily KQT member 2 (O88943 whole entry W236L): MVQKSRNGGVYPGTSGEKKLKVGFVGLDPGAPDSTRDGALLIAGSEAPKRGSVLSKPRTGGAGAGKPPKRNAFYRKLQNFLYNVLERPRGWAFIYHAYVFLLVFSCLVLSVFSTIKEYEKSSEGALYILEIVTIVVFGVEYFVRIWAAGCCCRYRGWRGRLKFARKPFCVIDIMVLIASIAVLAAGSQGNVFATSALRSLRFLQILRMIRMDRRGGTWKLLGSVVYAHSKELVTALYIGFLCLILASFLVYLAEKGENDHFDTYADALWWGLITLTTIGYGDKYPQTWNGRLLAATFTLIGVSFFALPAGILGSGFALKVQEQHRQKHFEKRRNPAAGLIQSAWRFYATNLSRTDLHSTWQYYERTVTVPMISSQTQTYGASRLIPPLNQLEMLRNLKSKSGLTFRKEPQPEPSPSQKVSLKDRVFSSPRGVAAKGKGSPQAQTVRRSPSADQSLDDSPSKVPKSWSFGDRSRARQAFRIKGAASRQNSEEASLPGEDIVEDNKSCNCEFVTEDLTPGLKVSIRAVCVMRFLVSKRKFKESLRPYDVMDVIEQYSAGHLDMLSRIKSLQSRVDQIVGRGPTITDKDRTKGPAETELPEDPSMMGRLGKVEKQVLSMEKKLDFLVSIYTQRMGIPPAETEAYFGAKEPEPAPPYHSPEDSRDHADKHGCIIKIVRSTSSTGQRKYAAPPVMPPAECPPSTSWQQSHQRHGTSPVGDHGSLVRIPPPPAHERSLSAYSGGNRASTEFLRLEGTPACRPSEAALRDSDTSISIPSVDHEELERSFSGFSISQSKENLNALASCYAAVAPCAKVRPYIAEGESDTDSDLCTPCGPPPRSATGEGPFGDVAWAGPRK
Chain of Genome polyprotein (P29990 2492-3391 limits assumed): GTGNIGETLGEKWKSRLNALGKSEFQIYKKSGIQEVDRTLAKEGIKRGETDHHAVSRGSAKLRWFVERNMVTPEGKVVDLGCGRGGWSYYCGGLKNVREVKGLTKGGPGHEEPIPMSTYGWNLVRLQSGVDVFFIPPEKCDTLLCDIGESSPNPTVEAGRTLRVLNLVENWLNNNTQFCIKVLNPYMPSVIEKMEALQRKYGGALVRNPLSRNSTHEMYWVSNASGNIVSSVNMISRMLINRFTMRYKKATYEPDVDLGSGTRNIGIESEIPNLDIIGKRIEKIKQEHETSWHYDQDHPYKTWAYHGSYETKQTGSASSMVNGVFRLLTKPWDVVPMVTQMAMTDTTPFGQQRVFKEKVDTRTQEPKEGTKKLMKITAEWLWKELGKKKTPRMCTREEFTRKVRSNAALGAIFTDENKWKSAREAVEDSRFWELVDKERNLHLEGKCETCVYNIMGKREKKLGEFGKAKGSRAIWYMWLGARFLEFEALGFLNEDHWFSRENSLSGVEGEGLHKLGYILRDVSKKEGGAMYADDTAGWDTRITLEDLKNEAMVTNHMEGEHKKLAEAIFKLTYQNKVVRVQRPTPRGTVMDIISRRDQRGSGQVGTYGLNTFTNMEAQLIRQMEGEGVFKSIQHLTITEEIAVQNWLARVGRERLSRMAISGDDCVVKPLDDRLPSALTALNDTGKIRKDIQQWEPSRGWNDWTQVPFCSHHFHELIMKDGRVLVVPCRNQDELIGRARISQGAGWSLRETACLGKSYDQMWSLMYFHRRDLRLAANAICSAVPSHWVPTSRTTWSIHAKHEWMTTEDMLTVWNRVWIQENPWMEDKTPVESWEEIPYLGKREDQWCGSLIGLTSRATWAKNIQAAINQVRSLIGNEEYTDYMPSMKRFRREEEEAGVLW
Chain of Oxytocin receptor (P30559 whole entry): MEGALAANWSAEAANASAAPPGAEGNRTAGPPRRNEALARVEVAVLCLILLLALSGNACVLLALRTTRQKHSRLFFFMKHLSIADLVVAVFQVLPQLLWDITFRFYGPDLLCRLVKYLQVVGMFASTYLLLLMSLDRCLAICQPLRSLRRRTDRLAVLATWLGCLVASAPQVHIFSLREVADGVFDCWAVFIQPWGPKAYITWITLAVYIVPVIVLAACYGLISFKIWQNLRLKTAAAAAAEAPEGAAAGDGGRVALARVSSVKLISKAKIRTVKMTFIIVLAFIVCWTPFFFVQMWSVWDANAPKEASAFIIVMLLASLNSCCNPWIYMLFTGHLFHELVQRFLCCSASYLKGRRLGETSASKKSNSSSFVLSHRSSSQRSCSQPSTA
Chain of Vasopressin V1a receptor (P37288 whole entry): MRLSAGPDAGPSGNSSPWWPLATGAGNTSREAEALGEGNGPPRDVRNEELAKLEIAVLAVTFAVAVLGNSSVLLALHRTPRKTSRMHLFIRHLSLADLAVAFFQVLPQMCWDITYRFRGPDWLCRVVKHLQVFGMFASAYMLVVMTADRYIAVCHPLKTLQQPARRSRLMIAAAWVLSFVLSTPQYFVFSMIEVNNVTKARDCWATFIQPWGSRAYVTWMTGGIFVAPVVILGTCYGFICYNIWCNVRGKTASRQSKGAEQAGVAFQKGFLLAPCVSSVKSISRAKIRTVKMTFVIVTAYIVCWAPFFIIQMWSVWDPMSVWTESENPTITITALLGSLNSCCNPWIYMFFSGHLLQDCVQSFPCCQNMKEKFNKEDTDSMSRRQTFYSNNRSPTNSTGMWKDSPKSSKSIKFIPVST
Chain of ATP-binding cassette sub-family B member 6 (Q9NP58 whole entry): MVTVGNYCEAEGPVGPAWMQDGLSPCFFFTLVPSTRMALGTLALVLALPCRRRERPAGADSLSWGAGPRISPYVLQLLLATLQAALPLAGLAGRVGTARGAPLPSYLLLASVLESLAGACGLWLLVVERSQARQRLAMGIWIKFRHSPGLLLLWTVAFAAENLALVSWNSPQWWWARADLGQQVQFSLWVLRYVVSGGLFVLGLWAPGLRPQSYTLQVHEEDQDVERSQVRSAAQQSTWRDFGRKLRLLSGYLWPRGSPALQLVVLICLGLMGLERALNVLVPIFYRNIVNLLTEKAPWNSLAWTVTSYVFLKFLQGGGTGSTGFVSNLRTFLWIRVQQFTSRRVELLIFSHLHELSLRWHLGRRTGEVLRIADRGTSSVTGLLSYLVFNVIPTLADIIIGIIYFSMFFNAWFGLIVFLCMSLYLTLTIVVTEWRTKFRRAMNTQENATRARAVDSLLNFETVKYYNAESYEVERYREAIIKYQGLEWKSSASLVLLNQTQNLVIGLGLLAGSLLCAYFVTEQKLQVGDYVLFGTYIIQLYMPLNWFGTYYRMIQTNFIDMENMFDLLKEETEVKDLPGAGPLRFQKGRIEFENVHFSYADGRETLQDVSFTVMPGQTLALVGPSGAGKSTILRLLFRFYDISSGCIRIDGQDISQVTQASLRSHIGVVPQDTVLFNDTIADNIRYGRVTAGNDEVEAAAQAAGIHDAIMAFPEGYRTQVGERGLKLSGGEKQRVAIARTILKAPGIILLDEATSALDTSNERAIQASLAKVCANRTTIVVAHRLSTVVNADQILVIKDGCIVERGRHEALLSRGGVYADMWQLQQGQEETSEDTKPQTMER

With `CCc1nnc(NC(=O)c2nc(S(=O)(=O)Cc3ccc(C)cc3)ncc2Cl)s1`, the AC50 (usually the concentration at which the activity in the assay is half-maximal) in assay [1] is 6.18 µM (active); in assay [2], 3.01 µM (active); in assay [4], > 70 µM (inactive); in assay [5], 5.97 µM (active). Besides, the EC50 in assay [3] was 29.5 µM (active); in assay [6], 4.8 µM (active); on Protein RecA, 4.11 µM (active). In addition, the results for the IC50 (in [7]; on Genome polyprotein; in assay [8]) were 3.11 µM (active), > 100 µM (active) and 3.31 µM (active), respectively. The CC50 (in general, the concentration at which the toxic effect on the cells reaches its halfway point) in the assay with Vero is 28.9 µM (active).

As for `CCCN(CCC)S(=O)(=O)c1ccc(NC(=O)Cc2cccs2)cc1`, the figures for the IC50 (on Estrogen receptor; in [9]) were 16.7 µM (active) and 9.83 µM (active), respectively.

For `Cc1cc(C)c(/C=C2\C(=O)Nc3ccccc32)[nH]1` [SEMAXANIB], the EC50 is 12.1 µM (not active) on Vasopressin V1a receptor, 11.5 µM (not active) at Oxytocin receptor, > 300 µM (not active) in assay [10] and > 300 µM (not active) in [11].
